In patent publication US20090131422A1, “Salts of an IKK inhibitor” (Millennium Pharmaceuticals, Inc., priority 2007, published 2009):
In brackets after ≈: the same amount, converted by molar mass. Structures can show the parent of a compound that is named as a salt.

What was measured:
[1] = Gravimetric vapor sorption (GVS); assay type: physicochemical; conditions: 25° C.
Method: Gravimetric Vapor Sorption (GVS): Gravimetric vapor sorption (GVS) data are collected using either i) a SGA-100 Water Vapor Sorption Analyzer from VTI Corporation. Sample sizes are typically 5-10 mg. A moisture adsorption/desorption isotherm is recorded by subjecting samples to a series of relative humidity (RH) steps at a constant temperature of 25° C.; or ii) a Hiden IGASorp moisture sorption analyser running CFRSorp software, IGA Systems Software V3.00.23 and IGASorp Controller Version 1.10. Sample sizes are typically 10 mg. A moisture adsorption/desorption isotherm iserformed in the following way: Samples are loaded/unloaded at typical room humidity and temperature (40% RH, 25° C.) and analysed afterwards by XRPD. The isotherm run is two complete cycles. Each cycle begins at 40% RH and using 10% RH intervals goes to 90% RH then Dry then 40% RH.

physchem = conditions: water
Method: Solubility: The water solubility of the Tartrate and Mono-HCl Salt was measured at ambient temperature.

With `C[C@@H]1CN(C(=O)CN2CC(C)(C)OC[C@H]2C(=O)Nc2cc(Cl)cc3c2[nH]c2cnccc23)C[C@H](C)O1` [Malonate Salt, (S)—N-(6-chloro-9H-pyrido[3,4-b]indol-8-yl)-4-(2-((2S,6R)-2,6-dimethylmorpholino)-2-oxoethyl)-6,6-dimethylmorpholine-3-carboxamide malonate] as the compound, how does the “moisture uptake from 40-90% RH” value ([1]; 40-90% RH) read?
The value was 1.5 wt %.

For `C[C@@H]1CN(C(=O)CN2CC(C)(C)OC[C@H]2C(=O)Nc2cc(Cl)cc3c2[nH]c2cnccc23)C[C@H](C)O1` [Mono-Hydrochloride Salt, (S)—N-(6-chloro-9H-pyrido[3,4-b]indol-8-yl)-4-(2-((2S,6R)-2,6-dimethylmorpholino)-2-oxoethyl)-6,6-dimethylmorpholine-3-carboxamide mono-hydrochloride], which “moisture uptake at 70% RH” value ([1]; mono-hydrochloride) is on record?
The value was 0.23%.

What about the “moisture uptake at 90% RH” value ([1]; mono-hydrochloride) of the same compound?
The value was 1.7%.

Which “moisture uptake at 70% RH” value [1] does the source give for `C[C@@H]1CN(C(=O)CN2CC(C)(C)OC[C@H]2C(=O)Nc2cc(Cl)cc3c2[nH]c2cnccc23)C[C@H](C)O1` [Tartrate Salt, (S)—N-(6-chloro-9H-pyrido[3,4-b]indol-8-yl)-4-(2-((2S,6R)-2,6-dimethylmorpholino)-2-oxoethyl)-6,6-dimethylmorpholine-3-carboxamide hemi-L-tartrate hydrate] here?
Its value is 1.3%.

What about the “moisture uptake at 90% RH” value [1] of the same compound?
The value was 2.4%.

What about the hygroscopicity ([1]; vapor sorption profile) of the same compound?
Its hygroscopicity is “relatively non-hygroscopic”.

Which solubility (physchem) does the source give for `C[C@@H]1CN(C(=O)CN2CC(C)(C)OC[C@H]2C(=O)Nc2cc(Cl)cc3c2[nH]c2cnccc23)C[C@H](C)O1` [free base, (S)—N-(6-chloro-9H-pyrido[3,4-b]indol-8-yl)-4-(2-((2S,6R)-2,6-dimethylmorpholino)-2-oxoethyl)-6,6-dimethylmorpholine-3-carboxamide] here?
The solubility was ~10 µg/mL (≈ 19.5 µM).
